Experimental data reported in paper PMC5620609 (Pharmaceuticals, 2017).
Where two headings read alike, the source gives them in different places.

How the values were obtained:
[1] = Pharmacokinetic study, IV in mice; type: in vivo; conditions: 10 mg/kg; for half-life: iv
Description: Blood aliquots (300–400 µL) were collected via cardiac puncture from anesthetized mice in anticoagulant coated tubes, then kept on ice and centrifuged at 2500× g for 15 min at 4 °C. The plasma was harvested and kept frozen at −80 °C. Plasma samples were processed using acetonitrile precipitation and analyzed by HPLC-MS/MS. A plasma calibration curve was generated and a reportable linear range determined, along with the lower limit of quantitation.

[2] = test system: HL-60 human leukemia (TP53 null) xenograft; type: in vivo
Description: (§1) Drugs were administered IV for 3 consecutive days a week for 3 weeks. HL-60 is a human leukemia cell line (TP53 null) that is part of the NCI 60 cell line panel and can be grown in nude mice.
(§2) First, 10^7 tumor cells from culture in Matrigel™ of HL-60 human leukemia or LoVo colon cancer were implanted subcutaneously in the flank of 1.75-fold the number of NCr-nu/nu mice required for the study. Study initiation began when the required number of mice had tumors of approximately: • 100 to 250 mm^3 (target group mean tumor volume of approximately 175 mm^3) for the first set of studies. • 14 to 63 mm^3 (target group mean tumor weight of approximately 30 mm^3) for the second set of studies.
(§3) Mice with tumors in the proper volume range were arbitrarily assigned to groups. Mice received test article on 3 consecutive days per week for 3 weeks. Mice were observed daily for mortality and moribundity with weights and the tumor measurements taken twice weekly. Tumor volume was determined using the formula for an ellipsoid sphere: Length × Width^2/2 = Volume (mm^3). The experiments were scheduled to last for 60 days from the day of tumor implant. Any animal whose weight decreased more than 30% from the weight on the first day of treatment or whose tumor reached 4000 mm^3 in volume, ulcerated or sloughed off, or was moribund was euthanized prior to study termination.

[3] = test system: LoVo colon cancer (TP53 WT) xenograft; type: in vivo
Description: as §1, §2, §3

RPMI-8226 = test: NCI 60 cell line panel: RPMI-8226; type: cell-based, human; conditions: Leukemia, TP53 null/mutant
Description: (§4) Details of the NCI 60 One Dose Screen are well known and available online.

NCI-H23 = test: NCI 60 cell line panel: NCI-H23; type: cell-based, human; conditions: NSCL, TP53 null/mutant
Description: as §4

KM12 = test: NCI 60 cell line panel: KM12; type: cell-based, human; conditions: Colon cancer, TP53 null/mutant
Description: as §4

SF-539 = test: NCI 60 cell line panel: SF-539; type: cell-based, human; conditions: CNS cancer, TP53 null/mutant
Description: as §4

SK-MEL-28 = test: NCI 60 cell line panel: SK-MEL-28; type: cell-based, human; conditions: Melanoma, TP53 null/mutant
Description: as §4

UACC-62 = test: NCI 60 cell line panel: UACC-62; type: cell-based, human; conditions: Melanoma, TP53 wild type
Description: as §4

TK-10 = test: NCI 60 cell line panel: TK-10; type: cell-based, human; conditions: Renal cancer, TP53 null/mutant
Description: as §4

MCF7 = test: NCI 60 cell line panel: MCF7; type: cell-based, human; conditions: Breast cancer, TP53 wild type
Description: as §4

DNMT1 [4] = target: T1, DNMT1 (Homo sapiens, UniProt P26358); test: Western blot for DNMT1, THP-1 cells; type: cell-based; parameters: cytoplasmic and nuclear protein extracts from cells; endogenous in cells; host or cells: THP-1; conditions: 0.1 and 0.2 µM, 6 days after exposure
T1 sequence (P26358 whole entry): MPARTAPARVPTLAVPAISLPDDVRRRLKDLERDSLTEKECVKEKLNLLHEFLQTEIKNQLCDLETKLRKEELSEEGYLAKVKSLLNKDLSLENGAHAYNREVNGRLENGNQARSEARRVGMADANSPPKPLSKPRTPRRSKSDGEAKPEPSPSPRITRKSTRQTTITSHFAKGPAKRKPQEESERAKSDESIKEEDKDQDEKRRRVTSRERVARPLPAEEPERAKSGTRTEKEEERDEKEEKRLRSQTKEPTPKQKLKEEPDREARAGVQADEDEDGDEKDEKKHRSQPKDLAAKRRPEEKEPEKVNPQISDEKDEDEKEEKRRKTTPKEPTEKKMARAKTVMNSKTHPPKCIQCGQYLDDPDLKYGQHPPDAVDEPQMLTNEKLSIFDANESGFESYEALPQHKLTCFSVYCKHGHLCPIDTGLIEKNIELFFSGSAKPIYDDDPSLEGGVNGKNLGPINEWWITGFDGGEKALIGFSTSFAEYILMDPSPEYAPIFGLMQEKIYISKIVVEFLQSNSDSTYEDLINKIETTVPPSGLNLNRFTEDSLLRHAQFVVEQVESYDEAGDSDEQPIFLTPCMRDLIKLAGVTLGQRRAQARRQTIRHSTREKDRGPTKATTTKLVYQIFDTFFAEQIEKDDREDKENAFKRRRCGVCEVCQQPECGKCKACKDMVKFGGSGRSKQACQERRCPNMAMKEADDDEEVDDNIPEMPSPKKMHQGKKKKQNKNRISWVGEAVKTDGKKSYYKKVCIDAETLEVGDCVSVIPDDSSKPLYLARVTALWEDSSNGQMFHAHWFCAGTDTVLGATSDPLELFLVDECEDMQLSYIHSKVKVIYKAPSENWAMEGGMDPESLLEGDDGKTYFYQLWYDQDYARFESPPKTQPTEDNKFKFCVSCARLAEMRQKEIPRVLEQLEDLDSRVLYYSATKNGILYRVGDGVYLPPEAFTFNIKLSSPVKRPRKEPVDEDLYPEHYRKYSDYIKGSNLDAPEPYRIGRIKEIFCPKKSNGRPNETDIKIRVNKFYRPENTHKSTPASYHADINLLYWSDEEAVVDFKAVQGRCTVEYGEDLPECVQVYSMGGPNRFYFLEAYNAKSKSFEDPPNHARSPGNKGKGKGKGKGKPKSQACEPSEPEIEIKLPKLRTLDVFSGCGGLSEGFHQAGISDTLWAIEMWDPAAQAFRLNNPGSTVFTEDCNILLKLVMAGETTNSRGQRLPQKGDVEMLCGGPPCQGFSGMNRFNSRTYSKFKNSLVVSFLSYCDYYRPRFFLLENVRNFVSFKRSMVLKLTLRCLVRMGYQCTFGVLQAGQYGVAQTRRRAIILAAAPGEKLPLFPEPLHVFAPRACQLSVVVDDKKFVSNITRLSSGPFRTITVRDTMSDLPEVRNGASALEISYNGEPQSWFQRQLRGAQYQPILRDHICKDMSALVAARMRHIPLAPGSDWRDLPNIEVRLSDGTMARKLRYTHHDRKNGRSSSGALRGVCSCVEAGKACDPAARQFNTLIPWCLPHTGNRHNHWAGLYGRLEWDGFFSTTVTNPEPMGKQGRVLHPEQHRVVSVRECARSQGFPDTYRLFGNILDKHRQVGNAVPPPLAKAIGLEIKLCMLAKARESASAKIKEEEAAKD
Description: (§5) Cells were co-stained with Annexin-V and PI on day 2 and analyzed by flow cytometry.
(§6) Approximately 100 µg of cytoplasmic and nuclear protein extracts from cells, together with molecular weight markers, were subjected to SDS-PAGE on 4–12% gradient gels (Invitrogen, Carlsbad, CA, USA) followed by transfer to polyvinylidene fluoride membranes (Invitrogen). Blots were probed using antibodies for DNMT1 (Abcam ab16632).

DNMT1 [5] = target: T1, DNMT1; test: Western blot for DNMT1, Kasumi-1 cells; type: cell-based; parameters: cytoplasmic and nuclear protein extracts from cells; endogenous in cells; host or cells: Kasumi-1; conditions: 0.1 and 0.2 µM, 6 days after exposure
Description: as §5, §6

Nc1ncn([C@@H]2O[C@H](CO)[C@@H](O)C2(F)F)c(=O)n1 [NUC013, 5-aza-2′,2′-difluroro deoxycytidine]
identification in plasma at the 6 and 24 h timepoints ([1]; mice, IV): could not be identified
half-life ([1]; mouse, plasma, mice, intravenous injection, read-out: half-life): 20.1 min
half-life ([1]; mouse, plasma, mouse, IV, plasma, non-compartmental, read-out: t1/2 (converted)): 20.1 min
AUC Extr ([1]; mouse, IV, plasma): 0.04%
AUC(0-inf) ([1]; mouse, IV, plasma): 11.1 µg·h/mL
AUC(0-t) ([1]; mouse, IV, plasma): 11.1 µg·h/mL
C0 ([1]; mouse, IV, plasma): 36.9 µg/mL
Last time point for AUClast ([1]; mouse, IV, plasma): 4 h
MRT ([1]; mouse, IV, plasma): 17.5 min
Vd ([1]; mouse, IV, plasma, read-out: Vss): 0.26 L/kg
median survival (MS) ([2]; HL-60 first study, NUC013 5.8 mg/kg IV, saline MS = 25 days): 28.5 days
mice died or euthanized for moribundity (out of 10) ([2]; HL-60 first study, NUC013 equimolar dose (5.8 mg/kg) IV): none
median survival (MS) ([2]; HL-60 second study, NUC013 20 mg/kg IV, saline MS = 26.5 days): 32 days
tumor volume lower than saline control (maximum) ([2]; HL-60 second study, NUC013 20 mg/kg IV, study days 21 and 25): 47.8%
median survival (MS) ([3]; LoVo first study, NUC013 5.8 mg/kg IV): 60 days
mean tumor volume lower compared to controls ([3]; LoVo first study, NUC013 equimolar dose (5.8 mg/kg) IV, study day 27): 24.3%
median survival (MS) ([3]; LoVo second study, NUC013 20 mg/kg IV): undefined
mean tumor volume lower compared to controls ([3]; LoVo second study, NUC013 20 mg/kg IV, study day 30): 50.9%
median survival (MS) ([3]; LoVo second study, NUC013 40 mg/kg IV): undefined
mean tumor volume lower compared to controls ([3]; LoVo second study, NUC013 40 mg/kg IV, study day 30): 53.7%
Growth (%) at 10 µM (RPMI-8226): 39.24%
Growth (%) at 10 µM (NCI-H23): 30.61%
Growth (%) at 10 µM (KM12): 61.18%
Growth (%) at 10 µM (SF-539): 22.25%
Growth (%) at 10 µM (SK-MEL-28): 78.46%
Growth (%) at 10 µM (UACC-62): 47.29%
Growth (%) at 10 µM (TK-10): 91.13%
Growth (%) at 10 µM (MCF7): 20.74%
DNMT1 inhibition by western blot (DNMT1 [4]): comparable to decitabine
DNMT1 inhibition by western blot (DNMT1 [5]): weaker than decitabine
